The text below walks through data of paper PMC2248166, “Quantitative peptide binding motifs for 19 human and mouse MHC class I molecules derived using positional scanning combinatorial peptide libraries” (Immunome Research, 2008).

SMILES strings stand for the structures. Where a SMILES comes first, the peptide text is derived from it.

Targets include HLA A*3201 (Homo sapiens, UniProt P04439, A270S/D101S/D185E/E176V/E277Q/F133L/G103R/G107R/G231S/H175R/I121M/I218V/I322F/K168Q/L105A/L300P/L318F/M331R/P208A/P217A/Q94H/R106L/R138Q/S129P/T104I/T323A/T345S/V100E/V321M/V358M); HLA B*1501 (Homo sapiens, UniProt P01889, A329T/A93T/A95T/C349S/D201E/D98Y/E187L/E204Q/E69M/E70A/K202T/N87E/Q94N/R155S/R180W/S121R/S35A/S48A/V306I/V36M/Y140S/Y91S); HLA A*3001 (Homo sapiens, UniProt P04439, D140H/D185E/E176W/F33S/G80R/H175R/K168Q/R138E/R41S); HLA B*1503 (Homo sapiens, UniProt P01889, A329T/A93T/A95T/C349S/D201E/D98Y/E187L/E204Q/K202T/N87E/Q94N/R155S/R180L/S121R/S35A/V306I/V36M/Y140S/Y91S).

What all share (assay): biochemical
Type in all cases: binding

At HLA A*3201, `CC[C@H](C)[C@H](NC(=O)[C@H](CC(N)=O)NC(=O)[C@H](CCSC)NC(=O)[C@H](CCSC)NC(=O)[C@@H](N)Cc1ccc(O)cc1)C(=O)N[C@@H](Cc1ccc(O)cc1)C(=O)N[C@@H](CC(C)C)C(=O)N[C@@H](CC(N)=O)C(=O)N[C@@H](Cc1ccccc1)C(=O)O` [3102.0446] (H-YMMNIYLNF-OH) registered an IC50 of 2.9 nM.

At HLA A*3201, `CC[C@H](C)[C@H](NC(=O)[C@H](CO)NC(=O)[C@H](CC(C)C)NC(=O)[C@@H](NC(=O)[C@H](CO)NC(=O)[C@H](C)NC(=O)[C@H](CC(C)C)NC(=O)[C@@H](NC(=O)[C@@H](N)CCC(N)=O)[C@@H](C)CC)[C@@H](C)CC)C(=O)O` [3102.0474] (H-QILASILSI-OH) showed an IC50 of 22 nM. Compared with the last compound, the IC50 is about 7.6-fold higher.

On HLA A*3201, `CC[C@H](C)[C@H](NC(=O)[C@H](CO)NC(=O)[C@H](CCSC)NC(=O)[C@H](CC(C)C)NC(=O)[C@@H](N)CCCNC(=N)N)C(=O)N[C@@H](CC(N)=O)C(=O)N[C@@H](CCCNC(=N)N)C(=O)NCC(=O)N[C@@H](Cc1ccccc1)C(=O)O` [3102.0465] (H-RLMSINRGF-OH) gave an IC50 of 3 nM.

`CC[C@H](C)[C@H](NC(=O)[C@H](CC(C)C)NC(=O)[C@H](CC(C)C)NC(=O)[C@@H](NC(=O)[C@H](Cc1ccccc1)NC(=O)[C@H](CO)NC(=O)[C@H](CC(N)=O)NC(=O)[C@@H](NC(=O)[C@@H](N)CO)C(C)C)[C@@H](C)O)C(=O)O` [3102.0331] (H-SVNSFTLLI-OH) showed an IC50 against HLA A*3201 of 2.6 nM.

Compound `CC[C@H](C)[C@H](NC(=O)[C@H](CC(N)=O)NC(=O)[C@H](Cc1ccc(O)cc1)NC(=O)[C@H](CC(=O)O)NC(=O)[C@@H](NC(=O)[C@H](Cc1ccc(O)cc1)NC(=O)[C@H](CC(N)=O)NC(=O)[C@H](CC(C)C)NC(=O)[C@@H](N)CCSC)C(C)C)C(=O)O` [3102.0374] (H-MLNYVDYNI-OH) came in with a 50% inhibitory concentration (IC50) against HLA A*3201 of 1.6 nM.

Compound `CC[C@H](C)[C@H](NC(=O)[C@H](CCC(=O)O)NC(=O)[C@@H](NC(=O)[C@@H](NC(=O)[C@H](CCC(=O)O)NC(=O)[C@H](CC(N)=O)NC(=O)[C@@H](NC(=O)[C@@H](N)CCCCN)[C@@H](C)CC)C(C)C)C(C)C)C(=O)N[C@@H](Cc1ccccc1)C(=O)O` [3102.0471] (H-KINEVVEIF-OH) returned an IC50 against HLA A*3201 of 19 nM.

On to `CC[C@H](C)[C@H](NC(=O)[C@H](CC(N)=O)NC(=O)[C@H](Cc1ccccc1)NC(=O)[C@@H](NC(=O)[C@H](CCCCN)NC(=O)[C@H](Cc1ccccc1)NC(=O)[C@H](CC(N)=O)NC(=O)[C@@H](NC(=O)[C@H](C)N)[C@@H](C)CC)[C@@H](C)CC)C(=O)O` [3102.0489] (H-AINFKIFNI-OH), for which the IC50 at HLA A*3201 is 22 nM.

Compound `CC[C@H](C)[C@H](NC(=O)[C@@H](NC(=O)[C@@H](NC(=O)[C@H](CC(=O)O)NC(=O)[C@@H](NC(=O)[C@H](Cc1ccccc1)NC(=O)[C@@H](NC(=O)[C@@H](NC(=O)[C@@H](N)CO)[C@@H](C)CC)C(C)C)C(C)C)C(C)C)[C@@H](C)CC)C(=O)O` [3102.0355] (H-SIVFVDVII-OH) gave an IC50 on HLA A*3201 of 59 nM.

On to `CC[C@H](C)[C@H](NC(=O)[C@H](CO)NC(=O)[C@@H](N)CCCCN)C(=O)N[C@@H](CCC(=O)O)C(=O)N[C@@H](CCC(N)=O)C(=O)N[C@@H](Cc1c[nH]cn1)C(=O)N1CCC[C@H]1C(=O)N[C@H](C(=O)N[C@H](C(=O)O)C(C)C)C(C)C` [3102.0246] (H-KSIEQHPVV-OH), for which the IC50 against HLA B*1501 amounted to 71 nM; against HLA A*3001 it was 2.7 nM.

`CC[C@H](C)[C@H](NC(=O)[C@@H](NC(=O)[C@H](CO)NC(=O)[C@H](CC(C)C)NC(=O)[C@@H](NC(=O)[C@H](CCSC)NC(=O)[C@H](CCSC)NC(=O)[C@@H](NC(=O)[C@H](C)N)[C@@H](C)CC)[C@@H](C)CC)[C@@H](C)O)C(=O)O` [3102.0350] (H-AIMMILSTI-OH) displayed an IC50 at HLA A*3201 of 2.5 nM.

`CC[C@H](C)[C@H](NC(=O)[C@@H](NC(=O)[C@@H](N)CCCCN)[C@@H](C)O)C(=O)N[C@@H](Cc1ccccc1)C(=O)N[C@@H](CC(C)C)C(=O)N[C@@H](CO)C(=O)N[C@@H](CCC(=O)O)C(=O)N1CCC[C@H]1C(=O)N[C@@H](Cc1ccc(O)cc1)C(=O)O` [3102.0457] (H-KTIFLSEPY-OH) displayed an IC50 against HLA A*3201 of 2.9 nM.

In turn, `CC[C@H](C)[C@H](NC(=O)CNC(=O)[C@H](CC(N)=O)NC(=O)[C@H](CO)NC(=O)[C@@H](NC(=O)CNC(=O)[C@H](CC(N)=O)NC(=O)[C@@H](NC(=O)CN)[C@@H](C)O)[C@@H](C)CC)C(=O)O` [3102.0439] (H-GTNGISNGI-OH) gave an IC50 on HLA A*3201 of 20 nM.

On HLA A*3201, `CC[C@H](C)[C@H](NC(=O)[C@@H](N)CCCCN)C(=O)N[C@@H](CC(N)=O)C(=O)N[C@@H](CCSC)C(=O)N[C@@H](CCC(N)=O)C(=O)N[C@H](C(=O)N[C@@H](CC(C)C)C(=O)N[C@@H](CC(C)C)C(=O)N[C@@H](Cc1ccccc1)C(=O)O)[C@@H](C)O` [3102.0488] (H-KINMQTLLF-OH) gave an IC50 of 10 nM.

`CC[C@H](C)[C@H](NC(=O)[C@H](CCSC)NC(=O)[C@@H](NC(=O)[C@H](CO)NC(=O)[C@H](CO)NC(=O)[C@H](Cc1ccc(O)cc1)NC(=O)[C@H](CO)NC(=O)[C@H](CCSC)NC(=O)[C@@H](N)CCCCN)C(C)C)C(=O)O` [3102.0497] (H-KMSYSSVMI-OH) displayed an IC50 on HLA A*3201 of 14 nM.

For `CC[C@H](C)[C@H](NC(=O)[C@H](CO)NC(=O)[C@@H](NC(=O)CNC(=O)[C@H](Cc1ccccc1)NC(=O)[C@H](CO)NC(=O)[C@H](CC(N)=O)NC(=O)[C@H](CC(C)C)NC(=O)[C@@H](N)CCCCN)C(C)C)C(=O)O` [3102.0496] (H-KLNSFGVSI-OH), 0.55 nM corresponded to half-maximal inhibition against HLA A*3201 (IC50).

At HLA A*3201, `CC[C@H](C)[C@H](NC(=O)[C@@H](N)C(C)C)C(=O)N[C@@H](CC(N)=O)C(=O)N[C@@H](Cc1ccc(O)cc1)C(=O)N[C@@H](Cc1ccccc1)C(=O)N[C@@H](CC(N)=O)C(=O)N[C@@H](CCCNC(=N)N)C(=O)N[C@@H](CCSC)C(=O)N[C@@H](Cc1ccccc1)C(=O)O` [3102.0412] (H-VINYFNRMF-OH) yielded an IC50 of 4.3 nM.

Consider `CC[C@H](C)[C@H](NC(=O)[C@H](Cc1ccc(O)cc1)NC(=O)[C@H](C)NC(=O)[C@H](C)NC(=O)[C@H](Cc1c[nH]cn1)NC(=O)[C@H](CO)NC(=O)[C@@H](N)CCCCN)C(=O)N[C@@H](CC(=O)O)C(=O)N[C@@H](Cc1ccc(O)cc1)C(=O)O` [3102.0209] (H-KSHAAYIDY-OH), for which the IC50 is 1.8 nM at HLA B*1501, 1.7 nM on HLA B*1503 and 12 nM against HLA A*3001.

As to `CC(C)C[C@H](NC(=O)[C@@H](NC(=O)[C@H](CO)NC(=O)[C@H](CCCCN)NC(=O)[C@@H](NC(=O)[C@@H](N)Cc1c[nH]cn1)C(C)C)[C@@H](C)O)C(=O)N[C@@H](CC(N)=O)C(=O)N[C@@H](CC(N)=O)C(=O)N[C@@H](C)C(=O)O` [3102.0217] (H-HVKSTLNNA-OH), the IC50 against HLA B*1501 was determined as 367 nM; at HLA A*3001 it was 1.2 nM.

`CC(C)C[C@H](NC(=O)[C@@H]1CCCN1C(=O)[C@H](CC(N)=O)NC(=O)[C@H](C)NC(=O)[C@@H](N)Cc1ccccc1)C(=O)N[C@@H](CO)C(=O)N[C@@H](CC(N)=O)C(=O)N1CCC[C@H]1C(=O)N[C@@H](Cc1ccccc1)C(=O)O` [3102.1245] (H-FANPLSNPF-OH): the IC50 at HLA B*1501 was 1.7 nM; against HLA B*1503 it was 1.9 nM.

Turning to `CSCC[C@H](NC(=O)[C@H](Cc1ccc(O)cc1)NC(=O)[C@H](CCCCN)NC(=O)[C@H](CO)NC(=O)[C@H](Cc1ccccc1)NC(=O)[C@H](C)NC(=O)[C@@H](N)Cc1ccc(O)cc1)C(=O)N[C@@H](CO)C(=O)N[C@@H](Cc1ccccc1)C(=O)O` [3102.1180] (H-YAFSKYMSF-OH), the IC50 on HLA B*1501 worked out at 9 nM; against HLA B*1503 it was 1.8 nM.
